Measurements from publication PMC7217877, “N-AS-triggered SPMs are direct regulators of microglia in a model of Alzheimer’s disease” (Nature Communications, 2020).
Several values for one entry are separate records, joined by “and”; a condition that tells them apart may be missing. Identical values can stand only once.

Assays:
[1] = tested on: microglia; experiment: SphK activity in primary cells; assay type: cell-based, C57BL/6 mice; settings: Ab 10mM, replicates
Method: We confirmed S1P formation through SphK1 enzymatic activity measurements as previously described[11] using a UPLC (Ultra performance liquid chromatography) system (Waters). […] After pre-incubation, 1 mM ATP (Amresco, 0220) was added the mixture, and it was incubated at 37 °C for 1 h. The […] reactions were stopped by adding 53 μl of ethanol, and centrifuged at 15,493×g for 5 min. Thirty microliter of the supernatant was then transferred to a sampling glass vial and 5 μl was applied onto a UPLC system for analysis. S1P formation was followed as phosphorylation of (7-nitro-2-1,3-benzoxadiazol-4-yl)-d-erythro (NBD)-sphingosine (Avanti Polar Lipids) to NBD-S1P. Quantification was achieved by comparison with NBD-S1P (Avanti Polar Lipids) standards.
To confirm the generation and roles of N-AS in neurons, cells from E18 C57BL/6 mice were prepared as previously described. Cortices were dissected and then dissociated followed by incubation in papain (Worthington) at 37 °C for 15 min. […] Aβ 1–42 (10 μM, 24 h, Invitrogen, 03112) was exposed to neurons and the cells were analyzed for the generation and roles of N-AS. […] The human microglia treated with Aβ 1–42 and/or zileuton was incubated with N-AS (2.5 μM, 2 h, Sigma-Aldrich, 01912), and were analyzed for the generation and roles of N-AS.

[2] = tested on: COX2; experiment: SphK1-mediated COX2 acetylation with [14C] acetyl-CoA (ATP competition, SphK1 mutants; Supplementary Fig 1h,i); assay type: biochemical, human; settings: COX2 +
Excerpt: Single point mutations in SphK1 (R56A, R57A, R24A, R185A, D178A, and F192A) and COX2 (S565A, N181A, T564A, and S567A) were generated using the In-Fusion Cloning Kits (Clontech) and ORF cDNA expression plasmids of human SphK1 and COX2 gene (Sino Biological Inc, HG15679-NH and HG12036-NH), according to the manufacturer’s instructions. The forward and reverse primers described in Supplementary Table 4. The SphK1 WT, SphK1 mutants, COX2 WT, and COX2 mutant plasmids were transformed in the One shot TOP 10 competent cell (Invitrogen). The bacteria were grown in Luria-Bertani (LB, Invitrogen) plates supplemented with 50 μg ml^−1 kanamycin (Sigma-Aldrich) at 37 °C. The bacterial cell pellets were resuspended in lysis buffer containing 20 mM sodium phosphate (GE Healthcare), 500 mM NaCl (GE Healthcare), 20 mM imidazole (pH 7.4) (GE Healthcare), 0.2 mg ml^−1 lysozyme (Sigma-Aldrich), 20 μg ml^−1 DNase I (Roche), 1 mM MgCl2 (Sigma-Aldrich), and 1 mM PMSF (Sigma-Aldrich) before being lysed by sonication and clarified by centrifugation at 15,493×g for 10 min. Proteins were purified from the soluble fraction using His-Spin Trap columns (GE Healthcare) and the binding and acetylation assays were performed.
Acetylation assays were performed according to previously described procedures with minor modifications. […] N-AS (2 μCi, ARC UK Ltd, ARC-1024) at 37 °C for 2 h. [^14C] aspirin (2 μCi, ARC UK Ltd, ARC-0473) was conducted as the positive control. The reactions were terminated by placing the reaction tubes in ice for 5 min. To evaluate in vivo neuronal and microglial COX2 acetylation, 10 μCi [^14C] N-AS was orally administrated to 9-months-old WT and APP/PS1 mice. After 1 h, neuron and microglia were isolated and sonicated in culture media. To immunoprecipitate acetylated COX2, the sample was incubated with COX2 antibody (Abcam, ab15191) at 4 °C for 24 h and precipitated by adding 50 μl of protein-A sepharose (GE Healthcare). Acetylated COX2 proteins bound to the beads were analyzed using a Tri-Carb 3110TR liquid scintillation counter (Perkin-Elmer).

Compound	SphK activity (Fig 3d) [1]	COX2 acetylation with C14 Acetyl CoA (sFig 1i) ([2]; Acetyl transfer: SphK1, Sph, ATP, listed as C14 Acetyl CoA)	COX2 acetylation with C14 Acetyl CoA (sFig 1i) ([2]; Acetyl transfer: SphK1, Sph, listed as C14 Acetyl CoA)	COX2 acetylation with C14 Acetyl CoA (sFig 1i) ([2]; Acetyl transfer: SphK1, listed as C14 Acetyl CoA)	COX2 acetylation with C14 Acetyl CoA (sFig 1i) ([2]; Acetyl transfer: SphK1 R24A, Sph, listed as C14 Acetyl CoA)	COX2 acetylation with C14 Acetyl CoA (sFig 1i) ([2]; Acetyl transfer: SphK1 R56A, Sph, listed as C14 Acetyl CoA)	COX2 acetylation with C14 Acetyl CoA (sFig 1i) ([2]; Acetyl transfer: SphK1 R57A, Sph, listed as C14 Acetyl CoA)	COX2 acetylation with C14 Acetyl CoA (sFig 1i) ([2]; Acetyl transfer: SphK1 R185A, Sph, listed as C14 Acetyl CoA)	COX2 acetylation with C14 Acetyl CoA (sFig 1i) ([2]; C14 Acetyl CoA +, Acetyl transfer -)
Ab: Aβ 1–42 (Invitrogen, 03112) used to induce an AD environment in cells	3.655 and 3.493 and 3.944 and 3.366 and 2.386 and 3.719								
CC(=O)SCCNC(=O)CCNC(=O)[C@H](O)C(C)(C)COP(=O)(O)OP(=O)(O)OC[C@H]1O[C@@H](n2cnc3c(N)ncnc32)[C@H](O)[C@@H]1OP(=O)(O)O [Acetyl-CoA, acetyl-CoA]		10456 and 10500 and 10758 and 10726	19270 and 24354 and 19216 and 24474 and 19218 and 24370	11878 and 13132 and 13238 and 13414 and 13230	12532 and 11618 and 11452 and 12034 and 12526 and 12014	9992 and 10060 and 9758 and 9780 and 9270 and 10086	14380 and 14360 and 14338 and 14310 and 14334 and 14376	10222 and 9944 and 10214 and 10110 and 9988	2366 and 2614 and 2946 and 2710 and 2880 and 2156
